# Measured values reported in patent US8841312B2, “Fused pyridine, pyrimidine and triazine compounds as cell cycle inhibitors” (Amgen Inc., priority 2007, dated 2014).
# pIC50: −log10 of the molar value.
# Molecular target: Cdk4/CyclinD1 (Homo sapiens (Human), UniProt P11802)
# Assay: Cdk4 kinase inhibition assay with recombinant Cdk4/CyclinD1, Rb substrate, [33P]-ATP filter plate
# Format: biochemical
# Conditions: 25 μM ATP, read-out: Cdk 4 IC50
# Description: The Cdk4 and Cdk6 inhibitory activity of the compounds is measured with a kinase inhibition assay using recombinant Cdk4/CyclinD1 or Cdk6/CyclinD3 protein complexes. The protein substrate used in the assay is the retinoblastoma protein (Rb). The kinase reactions are carried out in a 96-well filter plate (MSDV N6B50, Millipore). […] The mixture is incubated at room temperature for 1 hour and the proteins precipitated with an equal volume of 20% TCA. The plates are washed with 10% TCA according to the manufacturer's instruction and dried at room temperature. The amount of the phosphorylated Rb is determined with a TopCount (PerkinElmer). The IC50 of a compound is determined by nonlinear regression curve fitting using software program Prism 5 (GraphPad Software).
# Cdk4/CyclinD1, sequence (P11802 whole entry): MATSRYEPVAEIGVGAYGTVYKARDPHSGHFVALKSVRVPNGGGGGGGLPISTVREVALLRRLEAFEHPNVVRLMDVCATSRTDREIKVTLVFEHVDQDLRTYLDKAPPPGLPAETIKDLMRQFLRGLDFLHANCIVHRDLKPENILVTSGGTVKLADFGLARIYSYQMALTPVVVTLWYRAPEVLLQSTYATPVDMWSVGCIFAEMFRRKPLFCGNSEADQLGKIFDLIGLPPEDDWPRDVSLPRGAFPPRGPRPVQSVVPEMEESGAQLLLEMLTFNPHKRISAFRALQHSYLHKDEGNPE
# Cdk4/CyclinD1, sequence (P24385 whole entry partner): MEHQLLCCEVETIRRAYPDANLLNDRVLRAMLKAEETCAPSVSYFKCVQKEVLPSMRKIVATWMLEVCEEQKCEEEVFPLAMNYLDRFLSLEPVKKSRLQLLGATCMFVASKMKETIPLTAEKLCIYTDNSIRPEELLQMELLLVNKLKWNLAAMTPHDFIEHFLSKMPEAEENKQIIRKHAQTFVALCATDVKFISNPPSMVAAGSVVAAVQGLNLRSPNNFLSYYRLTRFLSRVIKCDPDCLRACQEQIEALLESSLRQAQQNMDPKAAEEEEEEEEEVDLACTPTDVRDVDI
row,pIC50,SMILES
1,8.14,"c1cc2c3cnc(Nc4ccc(N5CCC6(CCCN6)CC5)nn4)nc3n(C3CCCC3)c2cn1 [Example 232, 9-cyclopentyl-N-(6-(1,8-diazaspiro[45]dec-8-yl)-3-pyridazinyl)-9H-pyrido[4′,3′:4,5]pyrrolo[2,3-d]pyrimidin-2-amine]"
2,6.75,"O=C(O)Cc1ccc(Nc2ncc3c4ccncc4n(C4CCCC4)c3n2)nc1 [Example 241, (6-((9-cyclopentyl-9H-pyrido[4′,3′:4,5]pyrrolo[2,3-d]pyrimidin-2-yl)amino)-3-pyridinyl)acetic acid]"
3,8.15,"CN(C)C1CCN(C(=O)Cc2ccc(Nc3ncc4c5ccncc5n(C5CCCC5)c4n3)nc2)CC1 [Example 243, 9-cyclopentyl-N-(5-(2-(4-(dimethylamino)-1-piperidinyl)-2-oxoethyl)-2-pyridinyl)-9H-pyrido[4′,3′:4,5]pyrrolo[2,3-d]pyrimidin-2-amine]"
4,7.96,"O=C(Cc1ccc(Nc2ncc3c4ccncc4n(C4CCCC4)c3n2)nc1)N1CCOCC1 [Example 244, 9-cyclopentyl-N-(5-(2-(4-morpholinyl)-2-oxoethyl)-2-pyridinyl)-9H-pyrido[4′,3′:4,5]pyrrolo[2,3-d]pyrimidin-2-amine]"
5,8.13,"O=C(Cc1ccc(Nc2ncc3c4ccncc4n(C4CCCC4)c3n2)nc1)N1CCNCC1 [Example 245, 9-cyclopentyl-N-(5-(2-oxo-2-(1-piperazinyl)ethyl)-2-pyridinyl)-9H-pyrido[4′,3′:4,5]pyrrolo[2,3-d]pyrimidin-2-amine]"
6,7.15,"c1cc2c3cnc(Nc4ccc(N5CCNC6(CCC6)C5)nn4)nc3n(C3CCCC3)c2cn1 [Example 246, 9-cyclopentyl-N-(6-(5,8-diazaspiro[3.5]non-8-yl)-3-pyridazinyl)-9H-pyrido[4′,3′:4,5]pyrrolo[2,3-d]pyrimidin-2-amine]"
7,8.47,"c1cc2c3cnc(Nc4ccc(N5CCNC6(CCCC6)C5)nn4)nc3n(C3CCCC3)c2cn1 [Example 247, 9-cyclopentyl-N-(6-(6,9-diazaspiro[4.5]dec-9-yl)-3-pyridazinyl)-9H-pyrido[4′,3′:4,5]pyrrolo[2,3-d]pyrimidin-2-amine]"
8,8.36,"c1cc2c3cnc(Nc4ccc(N5CCC6(CC5)COCCN6)nn4)nc3n(C3CCCC3)c2cn1 [Example 249, 9-cyclopentyl-N-(6-(4-oxa-1,9-diazaspiro[5.5]undec-9-yl)-3-pyridazinyl)-9H-pyrido[4′,3″:4,5]pyrrolo[2,3-d]pyrimidin-2-amine]"
9,7.80,"O=C1COC2(CCN(c3ccc(Nc4ncc5c6ccncc6n(C6CCCC6)c5n4)nn3)CC2)CN1 [Example 250, 9-(6-((9-cyclopentyl-9H-pyrido[4′,3′:4,5]pyrrolo[2,3-d]pyrimidin-2-yl)amino)-3-pyridazinyl)-1-oxa-4,9-diazaspiro[5.5]undecan-3-one]"
10,8.49,"CN1CCOC2(CCN(c3ccc(Nc4ncc5c6ccncc6n(C6CCCC6)c5n4)nn3)CC2)C1 [Example 251, 9-cyclopentyl-N-(6-(4-methyl-1-oxa-4,9-diazaspiro[5.5]undec-9-yl)-3-pyridazinyl)-9H-pyrido[4′,3′:4,5]pyrrolo[2,3-d]pyrimidin-2-amine]"
11,7.85,"O=S1(=O)CCC(O)(c2ccc(Nc3ncc4c5ccncc5n(C5CCCC5)c4n3)nc2)CC1 [Example 263, 4-(6-((9-cyclopentyl-9H-pyrido[4′,3′:4,5]pyrrolo[2,3-d]pyrimidin-2-yl)amino)-3-pyridinyl)tetrahydro-2H-thiopyran-4-ol 1,1-dioxide]"
12,7.14,"c1cncc(-c2ccc(Nc3ncc4c5ccncc5n(C5CCCC5)c4n3)nn2)c1 [Example 267, 9-Cyclopentyl-N-(6-(3-pyridinyl)-3-pyridazinyl)-9H-pyrido[4′,3′:4,5]pyrrolo[2,3-d]pyrimidin-2-amine]"
13,7.96,"c1cc2c3cnc(Nc4ccc(OC5CCNCC5)nn4)nc3n(C3CCCC3)c2cn1 [Example 268, 9-Cyclopentyl-N-(6-(4-piperidinyloxy)-3-pyridazinyl)-9H-pyrido[4′,3′:4,5]pyrrolo[2,3-d]pyrimidin-2-amine]"
14,7.46,"Fc1nccc2c3cnc(Nc4ccc(OC5CCNCC5)nn4)nc3n(C3CCCC3)c12 [Example 269, 9-Cyclopentyl-8-fluoro-N-(6-(4-piperidinyloxy)-3-pyridazinyl)-9H-pyrido[4′,3′:4,5]pyrrolo[2,3-d]pyrimidin-2-amine]"
15,7.72,"COCC(C)(C)n1c2cnccc2c2cnc(Nc3ccc(N4CCC(N(C)C)CC4)cn3)nc21 [Example 273, N-(5-(4-(dimethylamino)-1-piperidinyl)-2-pyridinyl)-9-(2-methoxy-1,1-dimethylethyl)-9H-pyrido[4′,3′:4,5]pyrrolo[2,3-d]pyrimidin-2-amine]"
16,6.00,"COCC(C)(C)n1c2cnccc2c2cnc(Nc3ccc(N4CCC(N(C)C)CC4)nn3)nc21 [Example 274, N-(6-(4-(dimethylamino)-1-piperidinyl)-3-pyridazinyl)-9-(2-methoxy-1,1-dimethylethyl)-9H-pyrido[4′,3′:4,5]pyrrolo[2,3-d]pyrimidin-2-amine]"
17,7.77,"CN(C)C1CCN(c2ccc(Nc3ncc4c5ccncc5n(C5CCSCC5)c4n3)nn2)CC1 [Example 275, N-(6-(4-(dimethylamino)-1-piperidinyl)-3-pyridazinyl)-9-(tetrahydro-2H-thiopyran-4-yl)-9H-pyrido[4′,3′:4,5]pyrrolo[2,3-d]pyrimidin-2-amine]"
18,7.02,"CN(C)C1CCN(c2ccc(Nc3ncc4c5ccncc5n(C5CCSCC5)c4n3)nc2)CC1 [Example 276, N-(5-(4-(dimethylamino)-1-piperidinyl)-2-pyridinyl)-9-(tetrahydro-2H-thiopyran-4-yl)-9H-pyrido[4′,3′:4,5]pyrrolo[2,3-d]pyrimidin-2-amine]"
19,7.74,"CCN(CC)C1CCN(c2ccc(Nc3ncc4c5ccnc(F)c5n(C5CCCC5)c4n3)nn2)CC1 [Example 277, 9-Cyclopentyl-N-(6-(4-(diethylamino)-1-piperidinyl)-3-pyridazinyl)-8-fluoro-9H-pyrido[4′,3′:4,5]pyrrolo[2,3-d]pyrimidin-2-amine]"
20,8.34,"CCN(CC)C1CCN(c2ccc(Nc3ncc4c5ccnc(F)c5n(C5CCCC5)c4n3)nc2)CC1 [Example 278, 9-Cyclopentyl-N-(5-(4-(diethylamino)-1-piperidinyl)-2-pyridinyl)-8-fluoro-9H-pyrido[4′,3′:4,5]pyrrolo[2,3-d]pyrimidin-2-amine]"
21,6.23,"CN(C)C1CCN(c2ccc(Nc3ncc4c5ccncc5n(C5CCS(=O)(=O)CC5)c4n3)nn2)CC1 [Example 279, N-(6-(4-(dimethylamino)-1-piperidinyl)-3-pyridazinyl)-9-(1,1-dioxidotetrahydro-2H-thiopyran-4-yl)-9H-pyrido[4′,3′:4,5]pyrrolo[2,3-d]pyrimidin-2-amine]"
22,7.23,"CN(C)C1CCN(c2ccc(Nc3ncc4c5ccncc5n(C5CCS(=O)(=O)CC5)c4n3)nc2)CC1 [Example 280, N-(5-(4-(dimethylamino)-1-piperidinyl)-2-pyridinyl)-9-(1,1-dioxidotetrahydro-2H-thiopyran-4-yl)-9H-pyrido[4′,3′:4,5]pyrrolo[2,3-d]pyrimidin-2-amine]"
23,7.96,"CCN(CC)C1CCN(c2ccc(Nc3ncc4c5ccnnc5n(C5CCCC5)c4n3)nc2)CC1 [Example 281, 9-Cyclopentyl-N-(5-(4-(diethylamino)-1-piperidinyl)-2-pyridinyl)-9H-pyrimido[5′,4′:4,5]pyrrolo[2,3-c]pyridazin-7-amine]"
